The text below walks through data of patent publication EP3763715A1, “HARRINGTONINES SALTS, IN PARTICULAR RETINOATES, THEIR PROCESS OF PREPARATION AND THEIR USES IN THE TREATMENT OF LEUKEMIAS, CANCERS, AUTOIMMUNE, SKIN, ALZHEIMER'S AND INFLAMMATORY BOWEL DISEASES AND VIRAL INFECTIONS, COMBINED WITH MYELOPOIESIS STIMULATING AGENTS” (Robin, Jean-Pierre, priority 2019, dated 2021).

pIC50: −log10 of the molar value. Bounds are passed on as bounds.

For one data set, the system named is Swiss nu/nu mice. Description: Toxicity seen in mice bearing MDA-MB-468 xenografts (in vivo efficacy study). Particulars: 1 mg/kg, subcutaneously, bi-daily, mice with MDA-MB-468 xenografts; all mice died after only a few days; preliminary experiment, data not shown. The procedure:
The experiments were conducted according to the Guide for the Care and Use of Laboratory Animals published by the US National Institutes of Health (NIH Publication n°85-23, revised 1996) and approved by the Ethic Committee of Clermont-Ferrand, France. All mouse studies were conducted in the animal facility of the INSERM U1240. Six weeks old Swiss nu/nu mice were purchased from Charles River Laboratories France and housed in standard conditions (n=5 per cage on ventilated racks, at 21-24 °C, 60% humidity, 12 h light/12 h dark cycle) with ad libitum access to irradiated food and water. […]
For assessment of HHT toxicity, groups of 6 mice were injected with sterile saline or 1, 2, 4 or 8 mg/kg of the drug, subcutaneously, bi-daily, over 7 days. […] The number of live animals was determined at days 4, 8 and 10, after treatment initiation.
For evaluation of HHT efficacy in vivo, when xenografts reached a volume of 200±20 mm^3, mice were randomized into the control or the treated group. […] Tumor size was non-invasively assessed using a digital caliper on days 3, 6, 8 and 10 after treatment initiation. Tumor volume was calculated using the following formula: V=(length×width^2)/2.

Data set [1] is described as follows: Solubility determination in water. Type of data set: physicochemical. The note with it: 25° C., semi-quantitative. Here is the method:
Solubility in water at 25° C. was measured semi-quantitatively at a threshold of 5 g per 100 mL. All the homoharringtonine salts described in the below examples, unless otherwise stated, are soluble at this threshold. Homoharringtonine base itself is soluble at a threshold lower than 0.1 g per mL.

Data set [2] concerns multidrug-resistant cell lines. Particulars: greater than that of HHT; cited from earlier work.
A further data set concerns MDA-MB-468. Description: Testing on breast cancer cell lines, sulforhodamine B (SRB) cell viability assay. Type of data set: cell-based, human. The note with it: MDA-MB-468 breast cancer cells, preliminary screening, read-out: M DA-MB-468 (BC) IC50. Here is the method:
Operating Procedure were performed as described in the recent paper of Yakhni et al [Yakhni AM J CANCER RES 2019; 9(5) in press "Homoharringtonine, on approved anti-leukemia drug, suppresses triple negative breast cancer growth through a rapid reduction of anti-apoptotic protein abundance"]
The cell lines used in this study were MDA-MB-231 (ATCC® HTB-26™), MDA-MB-468 (ATCC® HTB-132™), MDA-MB-157 (ATCC® HTB-24™) and CAL-51. Those lines were chosen to represent the BRCA1/2 non-mutated TNBC transcriptomic subtypes, currently most in need of efficacious treatment due to lower sensibility of BRCA1 wild-type TNBC to the DNA-damaging chemotherapy (Masuda et al., Clin Cancer Res. 2013, p5533; Jiang et al., PLoS Med. 2016, pe1002193; Park et al. ESMO Open. 2018, pe000357). CAL-51 line represents the mesenchymal transcriptomic subtype whereas MDA-MB-157 and MDA-MB-231 represent the mesenchymal stem-like subtype (Lehmann et al. J Clin Invest. 2011, p2750). MDA-MB-468 was used as a model of aggressive, PTEN-negative TNBC, with hyperactivated EGFR signaling pathway due to EGFR amplification (Filmus et al., Biochem Biophys Res Commun. 1985, p898). MDA-MB-468 transcriptome classifies it into the basal-like 1 subtype (49). The MDA lines were purchased from the American Type Culture Collection (ATCC, Manassas, VA, USA). The CAL-51 was kindly provided by Dr Gerard Milano, from the Centre Antoine Lacassagne, Nice, France, where the line has been established (Gioanni et al., Br J Cancer 1990, p8). After initial expansion, the cell line stock vials were conserved, in liquid nitrogen, at the Biological Resource Center of Jean Perrin Comprehensive Cancer Center (biobank ID BB-0033-00075, Clermont-Ferrand, France). The MDA cell lines were cultured in the Leibovitz L-15 medium, whereas CAL-51 line was maintained in DMEM (both media from Invitrogen Life Technologies, Carlsbad, CA, USA). The media were supplemented with 10% heat-inactivated fetal bovine serum and […] gentamicin. CAL-51 line was kept at 37°C, in a humidified atmosphere with 5% CO2; the MDA lines were kept under the same conditions, however, without CO2, in a free gas exchange with atmospheric air. All cell lines were maintained in monolayer culture, in the sub-confluent status, with no more 30 passages of the cells thawed from the stock vial.
Homoharringtonine was supplied by LeukePharma Inc. (Houston, TX, USA) as water-soluble, crystalline tartaric acid salt. Initial stock solution of HHT-tartrate was prepared at 10 mM in sterile deionized water, aliquoted and kept at -80°C. For each experiment, a fresh HHT solution was prepared by dissolving the HHT stock in phosphate-buffered saline (PBS, GIBCO™, Invitrogen, Cergy-Pontoise, France).
Cell viability was assessed using the sulforhodamine B (SRB) assay (Sigma-Aldrich, St Louis, MO, USA) according to the method described by Vichai and Kirtikara (Nat Protoc. 2006, p1112). Cells were seeded in 96-well plates, at 5x10^3 or 1x10^3 cells/well (the MDA cell lines and CAL-51, respectively), left overnight to adhere and then treated with growing concentrations of HHT for 24h, 48h or 72h. After incubation with the drug, cells were washed twice with PBS and left for 72 h in the corresponding complete culture medium. Then the cells were fixed with trichloroacetic acid (final concentration 10%) at 4°C for 1 h, followed with plate washing with water five times, air drying and staining with 0.4% SRB dissolved in 1% acetic acid, at room temperature, for 30 min. The plates were subsequently washed four times with 1% acetic acid to remove unbound stain. To solubilize the protein-bound dye, 10 mM Tris base solution was added to each well. The cell viability, estimated through the present protein biomass, was determined by measuring optical density of the dye, using a spectrophotometer at wavelength of 540 nm (BMG Labtech, Ortenberg, Germany).
Preliminary screening using these tumor cell lines are gathered in table 1.

For a further data set, the system named is HL-60 cell line. Description: Testing on HL-60 leukemia cell line (MTT cytotoxicity). Type of data set: cell-based, human. Particulars: HL-60 cells, medium with 20% fetal bovine serum, preliminary screening, read-out: HL60 (APL) IC50. The procedure: (§1) Retinoates of harringtonines described in this invention were tested on K562 cell line which is derived from the pleural effusion of a person with chronic myelogenous leukemia (CML, bcr-abl positive) in terminal blast crises (Lozzio and Lozzio, Blood, 1975, p321). The cell line was purchased from ATCC (American Tissue Culture Collection) and grown in RPMI medium supplemented with 10% heat-inactivated fetal calf serum, 2 mmol/L glutamine, […] penicillin and […] streptomycin. All tested products were initially dissolved in 2N HCl (pH=2) (alkaloid base) or in aqueous solvent (salt) or in DMSO (retinoids), supplemented with ultrasound treatment during 1 h. Working concentrations were made by dilution in culture medium (pH 7). Cells in exponential growth phase were placed into 96-microwell plates in concentration 3x10^4/mL (total volume 200 µL/well) and incubated with drugs for 72 h at 37° C. in 5% CO2 humidified atmosphere. Following incubation, 28 µL of MTT 3-(4,5 dimethylthiazol-2-yl)-2,5 tetrazolium bromide] dye solution (Sigma, St. Louis, Mo.) was added to each well. During the following 6 h of incubation at 37° C., the purple formazan product was formed by conversion of the yellow MTT salt in the mitochondria of the viable cells. The resulting precipitate was dissolved in DMSO and the amount of converted MTT was quantified in an ELISA reader (MR 5000, Dynatech). Each product was tested in triplicate (3x8 wells). Every test contained at least one plate with HHT as control, added in the same concentration as the tested products.
Retinoates of harringtonines described in this invention were tested on HL-60 cell line, derived from acute promyelocytic leukemia (APL) cells. HL-60 is a promyelocytic cell line derived by S.J. Collins, et al. (Proc. Natl. Acad. Sci. USA 1978 p2458). Peripheral blood leukocytes were obtained by leukopheresis from a person with APL (Gallagher R, et al. Blood 1978, p713) The cell line was purchased from ATCC (American Tissue Culture Collection) and the base growth medium was also completed with fetal bovine serum but at a final concentration of 20%, otherwise the same method than the one of example 10 was used.
Preliminary screening using this tumor cell lines are gathered in table 1.

Another data set deals with K562 cell line. The data set is described as follows: Testing on K562 leukemia cell line (MTT cytotoxicity). Type of data set: cell-based, human. The note with it: K562 cells, 72 h incubation, preliminary screening, read-out: K562 (CML) IC50. Here is the method:
as §1

With `COC(=O)C[C@](O)(CCCC(C)(C)O)C(=O)O[C@@H]1C(OC)=C[C@]23CCCN2CCc2cc4c(cc2[C@H]13)OCO4` [HHT, Homoharringtonine], in the data set with Swiss nu/nu mice, the “toxicity for the animals” value was “too toxic”.
For `COC(=O)C[C@](O)(CCCC(C)(C)O)C(=O)O[C@@H]1C(OC)=C[C@]23CCCN2CCc2cc4c(cc2[C@H]13)OCO4` [Homoharringtonine base, Homoharringtonine], the solubility in data set [1] was below 100 mg/mL.
In the case of `C/C=C/C=C/COC(=O)C[C@](O)(CCCC(C)(C)O)C(=O)O[C@@H]1C(OC)=C[C@]23CCCN2CCc2cc4c(cc2[C@H]13)OCO4` [OP5215], the antileukemic activity in data set [2] is 5 times.
For OP5215 acitretinate [Example 25], the pIC50 is above 7.70 with MDA-MB-468, above 7.30 in the data set with HL-60 cell line and above 7.70 in the data set with K562 cell line.
For OP5215 adarotenoate [Example 28], the figures for the negative-log IC50 (pIC50) in the data set with MDA-MB-468, with HL-60 cell line and in the data set on K562 cell line were above 8.00, above 7.70 and above 8.00, respectively.
OP5215 bexarotenoate [Example 29]: the pIC50 is above 8.00 with MDA-MB-468, above 7.70 in the data set on HL-60 cell line and above 8.00 with K562 cell line.
On to OP5215 tamibarotenoate [Example 26], for which the pIC50 in the data set with MDA-MB-468 is above 8.00; in the data set with HL-60 cell line it was above 7.70; in the data set on K562 cell line, above 8.00.
With OP5215, Am 580 salt [Example 27], the pIC50 in the data set with MDA-MB-468 was above 8.00; with HL-60 cell line, above 7.70; in the data set on K562 cell line it was above 8.00.
